The values below come from patent US20100203012A1, “IAP BIR DOMAIN BINDING COMPOUNDS” (Aegera Therapeutics, Inc., priority 2007, published 2010).

The target of assay [1] is T1, XIAP BIR2-BIR3-ring (GST-linker BIR 2 BIR3Ring) (Homo sapiens, UniProt P98170).
T1 construct: made in house; host or cells: Escherichia coli DH5-alpha
Description: Fluorescence polarization competition assay, BIR2-BIR3-ring, probe P2. It is filed as binding. The note with it: ki derived from IC50, read-out: ki in the BIR2-BIR3-ring FP assay. From the text:
GST-linker BIR 2 BIR3Ring: XIAP coding sequence from amino acids 93-497 cloned into PGex4T1 via BamH1 and XhoI. Amino acids 93-497 were amplified from full length XIAP in pGex4t3, using the primers: […] and GCTGCATGTGTGTCAGAGG, using standard PCR conditions. The PCR fragment was TA cloned into pCR-2.1 (invitrogen). Linker BIR 2 BIR 3Ring was subcloned into pGex4T1 by BamHI/XhoI digestion. The plasmid was transformed into E. coli DH5α for use in protein expression and purification.
For all assays, the fluorescence and fluorescence-polarization was evaluated using a Tecan Polarion instrument with the excitation filter set at 485 nm and the emission filter set at 535 nm. […] Upon establishing these conditions, the compounds potency (IC50) and selectivity, was assessed in the presence of a fix defined-amount of target protein and fluorescent probe and a 10 point serial dilution of the selected compounds. […] Auto-fluorescence for each compound was first assessed by performing a reading of the compound/BSA solution alone. Then 25 uL of the fluorescein probe (P1 or P2) diluted into 50 mM MES containing 0.05 mg/ml BSA were added and a reading to detect quenching of fluorescein signal done. Finally 25 uL/well of the target or control protein (GST-BIRs) diluted at the appropriate concentration in 50 mM MES containing 0.05 mg/ml BSA were added and the fluorescence polarization evaluated. […]

The subject of another assay is SKOV3 cells. Description: Cytotoxicity assay (MTT) on SKOV3 cells. It is filed as cell-based. The conditions noted are these: Homo sapiens, SK-OV-3, 72 hours, single agent. As to the method:
(§1) SKOV3 (ovarian) and HCT-116 (colon) cancer cells were cultured in McCoy's 5A media supplemented with 10% FBS and 100 units/mL of Penicillin and Streptomycin.
(§2) Cytotoxicity assays were performed on various cell lines including SKOV3 and HCT-116 cells. Cells were seeded in 96 well plates at a respective density of 2000 and 5000 cells per well and incubated at 37° C. in presence of 5% CO2 for 24 hours. Selected compounds were diluted into the media at various concentrations ranging from 0.01 nM up to 100 nM. Diluted compounds were added onto the SKOV3 cells. HCT-116 cells were co-treated with Trail receptor monoclonal antibody agonist (HGS-ETR^1, 40 ng/mL). After 72 hours, cellular viability was evaluated by MTT conversion. A solution of 3-(4,5-dimethylthiazol-2-yl)-2,5-diphenyltetrazolium bromide (MTT) was added onto cells for a period of 1 to 4 hours. Media was removed and replaced with isopropanol. Conversion of MTT by viable cells was detected by absorbance at 570 nm. The percentage of viability was expressed in percentage of the signal obtained with non treated cells.

Another assay has as its system HCT116 cells. Description: Cytotoxicity assay (MTT) on HCT-116 cells co-treated with HGS-ETR1. The conditions noted are these: Homo sapiens, co-treated with HGS-ETR1 40 ng/mL, 72 hours. Format: cell-based. As to the method: as §1, §2

T1 sequence (P98170 93-497): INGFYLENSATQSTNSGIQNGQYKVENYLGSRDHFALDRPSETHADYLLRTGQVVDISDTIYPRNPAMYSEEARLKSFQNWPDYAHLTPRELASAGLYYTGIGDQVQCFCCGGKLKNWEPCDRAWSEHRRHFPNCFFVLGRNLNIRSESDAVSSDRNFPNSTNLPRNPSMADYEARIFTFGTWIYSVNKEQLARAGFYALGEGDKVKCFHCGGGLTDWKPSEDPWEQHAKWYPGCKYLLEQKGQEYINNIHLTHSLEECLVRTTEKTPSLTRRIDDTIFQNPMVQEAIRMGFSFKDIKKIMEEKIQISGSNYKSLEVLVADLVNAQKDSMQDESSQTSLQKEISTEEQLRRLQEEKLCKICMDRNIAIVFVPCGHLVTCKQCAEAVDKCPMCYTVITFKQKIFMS

For the compound `CN[C@@H](C)C(=O)N[C@H](C(=O)N1CCN(C(=O)CNC(=O)c2ccc(-c3ccc(C(=O)NCC(=O)N4CCN(C(=O)[C@@H](NC(=O)[C@H](C)NC)C(C)(C)C)[C@H](C(=O)N[C@@H]5CCCc6ccccc65)C4)cc3)cc2)C[C@H]1C(=O)N[C@@H]1CCCc2ccccc21)C(C)(C)C` [Compound 3], the inhibition constant Ki in assay [1] was under 100 nM.

Take `CN[C@@H](C)C(=O)N[C@H](C(=O)N1CCN(C(=O)CCCCCCCCC(=O)N2CCN(C(=O)[C@@H](NC(=O)[C@H](C)NC)C(C)(C)C)[C@H](C(=O)N[C@@H]3CCCc4ccccc43)C2)C[C@H]1C(=O)N[C@@H]1CCCc2ccccc21)C(C)(C)C` [Compound 2]: the 50% effective concentration (EC50) with SKOV3 cells and with HCT116 cells was under 50 nM throughout.

With `CN[C@@H](C)C(=O)N[C@H](C(=O)N1CCN(C(=O)c2ccc(C(=O)N3CCN(C(=O)[C@@H](NC(=O)[C@H](C)NC)C(C)(C)C)[C@H](C(=O)N[C@@H]4CCCc5ccccc54)C3)cc2)C[C@H]1C(=O)N[C@@H]1CCCc2ccccc21)C(C)(C)C` [Compound 1], the concentration giving a half-maximal response (EC50) in the assay on SKOV3 cells and in the assay with HCT116 cells was under 50 nM each time.

As a reminder, the Ki is a measure of affinity in units of concentration, obtained from inhibition or displacement. In general, EC50 refers to the midpoint of the concentration-response curve.
